Common to all, as to experiment: NCI anticancer screen, dose series, 48 h
Assay [1] concerns IGROV1 ovarian.
Assay [2] deals with MALME-3M melanoma.
For assay [3], the system named is MDA-MB-231 breast.
The subject of assay [4] is UACC-257 melanoma.
Assay [5] relates to HS 578T breast.
The test system of assay [6] is COLO 205 colon.
The test system of assay [7] is DU-145 prostate.
For assay [8], the system named is T-47D breast.
Assay [9] deals with M14 melanoma.
Assay [10] deals with LOX IMVI melanoma.
Assay [11] has as its system OVCAR-8 ovarian.
In assay [12] the test system is SK-OV-3 ovarian.
The test system of assay [13] is RXF 393 renal.
Assay [14] relates to SF-295 CNS.
Assay [15] deals with BT-549 breast.
Assay [16] has as its system UACC-62 melanoma.
For assay [17], the system named is HL-60(TB) leukemia.
For assay [18], the system named is HOP-92 NSCLC.

These results are taken from PubChem BioAssay (NCI).

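Tested at 5 concentrations; 48 h exposure; 96-well plates; endpoints linearly interpolated, else capped at highest concentration. The concentration for full growth arrest is given as TGI.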 A value given as a limit tells only on which side of the number the result lay.

Regarding `O=C1C=CC2(O[C@H](c3ccccc3)[C@@H](c3ccccc3)O2)C(SC(=O)c2ccccc2)C1` (stereo partly specified), the TGI in [1] stood at 2.86 µM; in [2], 6.54 µM; in [3], 18 µM; in assay [4] it was 3.97 µM; in assay [5], 5.04 µM; in assay [6], 2.69 µM. Besides, the TGI was greater than 100 µM in [7]; 7.89 µM in assay [8]; 3.07 µM in assay [9]; 2.33 µM in assay [10]; 0.516 µM in assay [11]; 7.01 µM in assay [12]. The TGI in assay [13] worked out at 0.726 µM; in [14] it was 6.85 µM; in assay [15], 1.65 µM; in assay [16] it was 5.84 µM; in assay [17] it was 7.7 µM.
As to `COc1ccccc1C1SCC(=O)N1c1ccc(-n2c(-c3ccccc3)nc3ccccc3c2=O)cc1` (stereo unspecified), the TGI in assay [18], in assay [1], in assay [2], in assay [3], in [4] and in assay [5] was greater than 100 µM throughout. Moreover, the TGI in assay [6], in assay [7], in assay [8], in assay [10], in assay [11] and in assay [12] was greater than 100 µM each time. Further, the TGI in assay [14], in assay [15] and in assay [16] was greater than 100 µM each time.
Consider `O=C1/C(=C\c2ccc(Cl)cc2Cl)Sc2scc(-c3cccc([N+](=O)[O-])c3)[n+]21`, for which the TGI in [18] was 18.3 µM; in [1] it was 22.5 µM; in assay [2] it was 22.9 µM; in assay [3] it was 25.1 µM; in assay [4], 18.3 µM; in assay [5] it was greater than 100 µM. In addition, the TGI in [6] worked out at 2.56 µM; in assay [7], 29 µM; in assay [8], 57.8 µM; in assay [9], 19.9 µM; in assay [10] it was 3.47 µM; in assay [11], 29.1 µM. Further, the TGI in [12] was greater than 56.4 µM; in [13] it was 14.6 µM; in [14], greater than 68.9 µM; in assay [15] it was 18.1 µM; in assay [16] it was 21.6 µM.
`O=c1[nH]nc(Cc2ccccc2)n1/N=C/c1c(O)ccc2ccccc12`: the TGI was 50.3 µM in assay [18]; 93.4 µM in assay [1]; 50.7 µM in assay [2]; 44.2 µM in [3]; greater than 100 µM in assay [4]; 81.1 µM in assay [5]. For the same molecule, the TGI in assay [6] is greater than 100 µM; in [7] it was greater than 100 µM; in assay [8], 77.1 µM; in [10], greater than 100 µM; in [11] it was 51.9 µM; in [13], 49.6 µM. The TGI is 69 µM in assay [14], greater than 100 µM in assay [15] and greater than 100 µM in [16].
As for `CCOC(=O)c1cc2c(ccc3cc(C(=O)OCC)[nH]c32)[nH]1`, the TGI in assay [18] is greater than 100 µM; in [1] it was greater than 100 µM; in assay [2] it was greater than 100 µM; in [3] it was 28.7 µM; in [4], greater than 100 µM; in assay [5] it was 58.6 µM. Besides, the TGI in assay [6], in assay [7], in assay [8], in assay [9], in [10] and in assay [12] was greater than 100 µM throughout. Also, the TGI in [13] is 66.8 µM; in assay [14], greater than 100 µM; in assay [15], greater than 100 µM; in assay [16] it was greater than 100 µM.
In the case of `Cc1ccc2c(c1)C(=O)/C(=C\c1ccccc1)CCS2(=O)=O`, the TGI was greater than 56.9 µM in assay [18]; 28.7 µM in assay [1]; 36.5 µM in [2]; 35.5 µM in assay [3]; 31.6 µM in [4]; greater than 85.1 µM in assay [5]. Also, the TGI was 42 µM in assay [6]; 21.8 µM in [7]; 49.6 µM in assay [8]; greater than 53.8 µM in assay [9]; 44.3 µM in [10]; 62.6 µM in [11]. The TGI in assay [12] is 60.8 µM; in assay [14] it was 29.6 µM; in [15] it was greater than 37.2 µM; in [16], 31.9 µM.
`O=C1CCCCC/C1=C\c1ccc(F)cc1`: the TGI in [18], in assay [1], in [2], in [3], in assay [4] and in assay [5] was greater than 100 µM each time. In addition, the TGI in assay [6], in [7], in assay [8], in assay [9], in assay [10] and in [12] was greater than 100 µM throughout. Moreover, the TGI in [14], in assay [15] and in assay [16] was greater than 100 µM throughout.
Regarding `COC(OC)C1OC(CO)C(n2cc(C)c(=O)[nH]c2=O)C1O` (stereo unspecified), the TGI in assay [18], in assay [1], in [2], in assay [3], in assay [4] and in assay [5] was greater than 100 µM in each case. For the same molecule, the TGI in assay [6], in assay [7], in [8], in [9], in assay [10] and in [11] was greater than 100 µM throughout. For the same molecule, the TGI in assay [12], in [13], in assay [14], in assay [15] and in assay [16] was greater than 100 µM each time.
Consider `CC(C)(C)OC(=O)N(O)[C@@H]1C=C[C@H](n2cnc3c(N)ncnc32)C1`, for which the TGI in assay [18], in assay [1], in assay [2], in assay [3], in assay [4] and in [5] was greater than 100 µM in each case. For the same molecule, the TGI in assay [6], in [7], in assay [8], in assay [9], in assay [10] and in [11] was greater than 100 µM throughout. The TGI in [12], in [13], in [14], in assay [15] and in assay [16] was greater than 100 µM throughout.
For `C=C1C(=O)O[C@@H]2[C@H]1C[C@@H](O)[C@H](C)[C@@](O)(C(=O)/C=C/C)[C@H]2OC(=O)C(C)CC` (stereo partly specified), the TGI in [18] was 9.83 µM; in assay [1] it was 12.8 µM; in [2] it was 4.42 µM; in assay [3], 19.6 µM; in [4], greater than 39.4 µM; in assay [5], 6.34 µM. Further, the TGI in assay [6] is 3.33 µM; in assay [7], 22.8 µM; in [8], 71.8 µM; in assay [9], 9.03 µM; in assay [10], 12.3 µM; in [11] it was 6.4 µM. The TGI in assay [12] is greater than 100 µM; in assay [13], 5.36 µM; in assay [14] it was greater than 100 µM; in [15], 13.3 µM; in assay [16], 32.9 µM.
For `CC(=N/NC(=S)N1CCCCC1)/C(=N\NC(=S)N1CCCCC1)c1ccccc1`, the TGI in assay [18] was 3.36 µM; in assay [1] it was 3.27 µM; in assay [2], 3.96 µM; in assay [3], greater than 19.8 µM; in [4] it was 4.52 µM; in assay [5] it was 4.82 µM. Further, the TGI in [6] stood at 4.06 µM; in [7], 0.973 µM; in [8], 3.99 µM; in assay [9] it was 3.64 µM; in assay [10] it was 25.9 µM; in [11] it was 6.24 µM. Also, the TGI in [12] is 3.49 µM; in assay [13], 2.82 µM; in assay [14], 3.82 µM; in assay [15] it was 3.56 µM; in [16], 3.87 µM.
Regarding `Cn1c2ccccc2c2c(-c3ccccc3)[n+]3ccccc3nc21`, the TGI in assay [18] was 39.7 µM; in assay [1] it was 80.9 µM; in assay [2], 41.6 µM; in assay [3] it was 97.5 µM; in assay [4], 36.9 µM; in [5], greater than 100 µM. Also, the TGI in [6] was greater than 100 µM; in assay [7], greater than 100 µM; in assay [8], greater than 100 µM; in [9], 34.4 µM; in [10], 37.4 µM; in [11], greater than 100 µM. Besides, the TGI in assay [12] is greater than 100 µM; in assay [14], greater than 100 µM; in assay [15], 54.7 µM; in assay [16], 39.3 µM; in [17] it was 66.6 µM.
In the case of `Cc1ccc(CC(=O)Nc2ccc(NC(=O)/C=C/NC(=O)/C=C/c3ccc(-c4ccccc4)cc3)cc2C(=O)c2ccccc2)cc1`, the TGI in [1] was found to be 2.16 µM; in assay [2] it was 11.5 µM; in assay [3] it was 5.65 µM; in [4], 4.71 µM; in assay [5] it was 3.74 µM; in assay [6], 4.53 µM. Also, the TGI in assay [7] was greater than 100 µM; in [8], 18 µM; in [9], 7.3 µM; in [10], 4.84 µM; in [11], 2.21 µM; in assay [12], 4.36 µM. Further, the TGI in [13] was determined as 3.52 µM; in assay [14] it was 3.05 µM; in [15], 3.11 µM; in assay [16] it was 4.87 µM; in assay [17], 54.4 µM.
In the case of `O=C(Nc1cc(C(=O)Nc2cccc(S(=O)(=O)O)c2)cc(C(=O)Nc2cccc(S(=O)(=O)O)c2)c1)c1cccc(C(=O)Nc2cc(C(=O)Nc3cccc(S(=O)(=O)O)c3)cc(C(=O)Nc3cccc(S(=O)(=O)O)c3)c2)c1`, the TGI in assay [1], in assay [2], in assay [3], in assay [4], in [5] and in assay [6] was greater than 100 µM in each case. In addition, the TGI in [7], in assay [8], in assay [9], in assay [10], in assay [11] and in [12] was greater than 100 µM in each case. Moreover, the TGI in [13] was greater than 100 µM; in [14], greater than 100 µM; in assay [15], greater than 100 µM; in assay [16], greater than 100 µM; in assay [17] it was 65.5 µM.
As for `COc1cc2cc(C(=O)N3CC(CCl)c4c3cc([N+](=O)[O-])c3ccccc43)[nH]c2c(OC)c1OC` (stereo unspecified), the TGI in [18], in [1], in assay [2], in assay [3], in assay [4] and in assay [5] was greater than 100 µM throughout. The TGI in assay [6], in assay [7], in assay [8], in [9], in assay [10] and in [11] was greater than 100 µM in each case. Further, the TGI in assay [12] is greater than 100 µM; in assay [13], greater than 100 µM; in [14], 97.7 µM; in assay [15], greater than 100 µM; in assay [16], greater than 100 µM.
For `C=CCCCC1CCCNC1=O` (stereo unspecified), the TGI in [18], in [1], in assay [3], in assay [4], in [5] and in [7] was greater than 100 µM each time. Further, the TGI in assay [8], in assay [9], in assay [11], in assay [12], in assay [13] and in assay [14] was greater than 100 µM throughout. Further, the TGI in [15] and in assay [16] was greater than 100 µM throughout.
